From patent publication US5096929A, “2-amino-1,2,3,4-tetrahydronaphthalene derivatives with cardiovascular activity, process for their preparation and pharmaceutical compositions containing them” (Chiesi Farmaceutici S.p.A., priority 1989, dated 1992)
Where a name gives a salt, the structure may show the parent alone.

Tested on: anesthetized dog
Assay: Anesthetized dog: cardiovascular activity
Assay type: in vivo, Beagle dog
Details: for Hypotensive action / Increase of the cardiac output / Increase of the stroke volume / Reduction of the systemic arterial resistances: i.v. bolus
Experimental: The interesting hemodynamic properties of CHF 1255 were confirmed in vivo in the anesthetized dog.
Anesthesized dog: cardiovascular activity
Beagle dogs were anesthetized with sodium pentobarbital (30 mg/kg iv) thoracotomized and monitored by recording cardiocirculatory parameters.
CHF 1255 and the reference drugs (amrinone and xamoterol) were administered i.v. in a bolus.
CHF 1255 at the doses of 0.3-1.3 μmoles/kg i.v. confirmed its activity in changing hemodynamic parameters.

[1] = 1st of three doses (0.3-1.3 μmoles/kg)
[2] = 2nd of three doses (0.3-1.3 μmoles/kg)
[3] = 3rd of three doses (0.3-1.3 μmoles/kg)

Question: Which results are given for COc1ccc2c(c1OC)CCC(N[C@@H](C)[C@H](O)c1ccc(O)cc1)C2 (relative stereo) [CHF 1255, Erythro-5,6-Dimethoxy-2-[2-(4-hydroxyphenyl)-2-hydroxy-1-mehylethylamino]1,2,3,4-tetrahydronaphthalene hydrochloride]?
Answer: Hemodynamic effects (in words) (anesthetized dog, i.v.): more relevant than those of amrinone; Duration of activity (dog, in vivo): long-lasting; Hypotensive action [1]: -17%; Increase of the cardiac output [1]: 17%; Increase of the stroke volume [1]: 10; Reduction of the systemic arterial resistances [1]: -28%; Hypotensive action [2]: -22%; Increase of the cardiac output [2]: 28%; Increase of the stroke volume [2]: 16; Reduction of the systemic arterial resistances [2]: -37%; Hypotensive action [3]: -31%; Increase of the cardiac output [3]: 34%; Increase of the stroke volume [3]: 21; Reduction of the systemic arterial resistances [3]: -45%; Inotropic effect, dF/dT index (in words) (peak of first derivative of aortic flow): remarkable inotropic effect increasing the dF/dT index
